Results from US11432549B2, “Carbamoyl triazolinone based herbicide combinations and method of use” (Arysta LifeScience Corporation, priority 2009, dated 2022).

Columns and labels:
Experiment in all cases: Ex 5/7 greenhouse spray, bleaching/injury ratings
Type in all cases: in vivo
[1] = system: Poa annua
Procedure: (§1) Containers were watered as needed based on species and water usage. The greenhouse was heated to keep temperatures above 50° F. (10° C.) and ventilated as needed to keep temperatures below 100° F. (38° C.). Typical daytime temperatures in the greenhouse were 80-90° F. (27-32° C.) and nighttime temperatures were between 50-60° F. (10-16° C.). The soil employed was Promix BX potting soil. Overall moisture conditions were normal and the closest weather station was on-site. Conditions and equipment employed in this Example are tabulated below in Tables 5-1 and 5-2.
(§2) All containers were moved outdoors from the greenhouse and arranged in blocks by treatment for the herbicide applications. A single spray application was applied to each block containing four repetitions of each species for each treatment. Plants were then immediately returned to the greenhouse and irrigated with approximately ¼″ water 1-3 hrs after treatment with a hose end sprayer. Only the Poa plants were trimmed with scissors two days prior to treatment at a height of approximately 3 inches.
Transplanted tillering Kentucky Bluegrass was 5 to 6 months old, transplanted Poa annua was 5 to 6 months old. Tall fescue was seeded into the crabgrass pots. St. Augustine plants (Floratam and Saphire) were shipped from Port St. Lucie, Fla. Only two replicates of Saphire St. Augustine grass were used due to plant availability.
(§3) Referring to FIGS. 2A-B, 3A-C, 4A-C, and 5A-D, all ratings of injury or bleaching are based on a scale from 1 to 9. […] Any bleaching measurement 4 and above was considered unacceptable for desirable turf species. In injury measurements, 1 indicates no injury while 9 indicates a dead plant. Any injury measurement 4 and above was considered unacceptable for desirable turf species). Density correlates with percent cover where 1 indicates no grass while 9 indicates a full pot.
(§4) Replications employed include 4, Untreated treatments: 1, Design: Randomized Complete Block, Treatment units: US standard, Treated plot size Width: 4 feet, Treated plot size Length: 4 feet, Application volume: 50 gal/ac, Mix size: 0.5562 liters, Mix overage: 100%, Format definitions: G-All7.DEF, G-All7.FRM.
(§5) In evaluating synergism, the data from Example 5 above were converted to % of control. This was done based on the data provided on a 1-9 scale detailed in Example 5. Expected values were computed from the % of control data by the formula for expected control=[…], where A is the % of control value for herbicide A alone and B is the % of control value for herbicide B alone.

[2] = system: Green Foxtail
Procedure: as §1, §2, §3, §4, §5

[3] = system: Mustard (Sinapsis sp.)
Procedure: as §1, §2, §3, §4, §5

[4] = rating 1, 0.022 lbs ai/A (0.5 oz/A)
[5] = rating 1, 0.13 lbs ai/A (3 oz/A)
[6] = rating 2, 0.022 lbs ai/A (0.5 oz/A)
[7] = rating 2, 0.13 lbs ai/A (3 oz/A)
[8] = rating 3, 0.022 lbs ai/A (0.5 oz/A)
[9] = rating 3, 0.13 lbs ai/A (3 oz/A)
[10] = rating 4, 0.022 lbs ai/A (0.5 oz/A)
[11] = rating 4, 0.13 lbs ai/A (3 oz/A)
[12] = rating 5, 0.022 lbs ai/A (0.5 oz/A)
[13] = rating 5, 0.13 lbs ai/A (3 oz/A)
[14] = rating 6, 0.022 lbs ai/A (0.5 oz/A)
[15] = rating 6, 0.13 lbs ai/A (3 oz/A)
[16] = rating 7, 0.022 lbs ai/A (0.5 oz/A)
[17] = rating 7, 0.13 lbs ai/A (3 oz/A)
[18] = 6 DA-A, Trt 2/4/6: Amicarbazone 0.0219, Tenacity 0.125 lb ai/a
[19] = 6 DA-A, Trt 3/5/9: Amicarbazone 0.131, Tenacity 0.25 lb ai/a
[20] = 7 DA-A, Trt 2/4/6: Amicarbazone 0.0219, Tenacity 0.125 lb ai/a
[21] = 7 DA-A, Trt 3/5/9: Amicarbazone 0.131, Tenacity 0.25 lb ai/a

CC(C)c1nn(C(=O)NC(C)(C)C)c(=O)n1N [Amicarbazone, 4-amino-5-isopropyl-2-(tert-butyl-aminocarbonyl)-2,4-dihydro-3H-1,2,4-triazol-3-one]
control of annual bluegrass ([1]; high rate, by itself): reasonable control
Annual bluegrass bleaching [1, 4]: 100 % of control
Annual bluegrass injury [1, 4]: 104 % of control
Annual bluegrass bleaching [1, 5]: 100 % of control
Annual bluegrass injury [1, 5]: 71 % of control
Annual bluegrass bleaching [1, 6]: 100 % of control
Annual bluegrass injury [1, 6]: 104 % of control
Annual bluegrass bleaching [1, 7]: 100 % of control
Annual bluegrass injury [1, 7]: 61 % of control
Annual bluegrass bleaching [1, 8]: 100 % of control
Annual bluegrass injury [1, 8]: 108 % of control
Annual bluegrass bleaching [1, 9]: 91 % of control
Annual bluegrass injury [1, 9]: 67 % of control
Annual bluegrass bleaching ([1]; rating 4/2, 0.022 lbs ai/A (0.5 oz/A)): 100 % of control
Annual bluegrass bleaching ([1]; rating 4/2, 0.13 lbs ai/A (3 oz/A)): 88 % of control
Annual bluegrass bleaching [1, 10]: 107 % of control
Annual bluegrass injury [1, 10]: 96 % of control
Annual bluegrass bleaching [1, 11]: 94 % of control
Annual bluegrass injury [1, 11]: 53 % of control
Annual bluegrass injury [1, 12]: 90 % of control
Annual bluegrass injury [1, 13]: 52 % of control
Annual bluegrass injury [1, 14]: 85 % of control
Annual bluegrass injury [1, 15]: 31 % of control
Annual bluegrass injury [1, 16]: 85 % of control
Annual bluegrass injury [1, 17]: 24 % of control
Green Foxtail bleaching [2, 4]: 100 % of control
Green Foxtail injury [2, 4]: 97
Green Foxtail bleaching [2, 5]: 100 % of control
Green Foxtail injury [2, 5]: 67
Green Foxtail bleaching [2, 6]: 104 % of control
Green Foxtail injury [2, 6]: 94
Green Foxtail bleaching [2, 7]: 104 % of control
Green Foxtail injury [2, 7]: 69
Green Foxtail bleaching [2, 8]: 104 % of control
Green Foxtail injury [2, 8]: 97
Green Foxtail bleaching [2, 9]: 104 % of control
Green Foxtail injury [2, 9]: 81
Green Foxtail bleaching [2, 10]: 104 % of control
Green Foxtail injury [2, 10]: 97
Green Foxtail bleaching [2, 11]: 104 % of control
Green Foxtail injury [2, 11]: 84
Green Foxtail bleaching [2, 12]: 160 % of control
Green Foxtail injury [2, 12]: 102
Green Foxtail bleaching [2, 13]: 106 % of control
Green Foxtail injury [2, 13]: 77
Green Foxtail injury [2, 14]: 97
Green Foxtail injury [2, 15]: 73
Green Foxtail injury [2, 16]: 268
Green Foxtail injury [2, 17]: 144
Injury (1-9 scale) ([3]; 3 DA-A, Trt 2/4/6: Amicarbazone 0.0219, Tenacity 0.125 lb ai/a): 2.8 b
Injury (1-9 scale) ([3]; 3 DA-A, Trt 3/5/9: Amicarbazone 0.131, Tenacity 0.25 lb ai/a): 6.8 a
Bleaching (1-9 scale) [3, 18]: 2.0 bc
Injury (1-9 scale) [3, 18]: 2.8 c
Bleaching (1-9 scale) [3, 19]: 1.3 c
Injury (1-9 scale) [3, 19]: 6.5 ab
Bleaching (1-9 scale) [3, 20]: 2.0 bc
Injury (1-9 scale) [3, 20]: 4.3 c
Bleaching (1-9 scale) [3, 21]: 2.0 bc
Injury (1-9 scale) [3, 21]: 7.0 b
Injury (1-9 scale) ([3]; 10 DA-A, Trt 2/4/6: Amicarbazone 0.0219, Tenacity 0.125 lb ai/a): 6.0 b
Injury (1-9 scale) ([3]; 10 DA-A, Trt 3/5/9: Amicarbazone 0.131, Tenacity 0.25 lb ai/a): 8.8 a
Injury (1-9 scale) ([3]; 14 DA-A, Trt 2/4/6: Amicarbazone 0.0219, Tenacity 0.125 lb ai/a): 5.8 b
Injury (1-9 scale) ([3]; 14 DA-A, Trt 3/5/9: Amicarbazone 0.131, Tenacity 0.25 lb ai/a): 8.8 a
Mustard bleaching [3, 4]: 119 % of control
Mustard injury [3, 4]: 78 % of control
Mustard bleaching [3, 5]: 132 % of control
Mustard injury [3, 5]: 28 % of control
Mustard bleaching [3, 6]: 94 % of control
Mustard injury [3, 6]: 78 % of control
Mustard bleaching [3, 7]: 94 % of control
Mustard injury [3, 7]: 31 % of control
Mustard injury [3, 8]: 61 % of control
Mustard injury [3, 9]: 26 % of control
Mustard injury [3, 10]: 39 % of control
Mustard injury [3, 11]: 3 % of control
Mustard injury [3, 12]: 42 % of control
Mustard injury [3, 13]: 3 % of control
